Earlier results, collected in patent US20070297988A1, “Optical probes for in vivo imaging” (priority 2006, published 2007).

Experiments:
[1] = administered intravenously
[2] = degradation accelerated by light and heat

For CC1(C)C(/C=C/C=C/C=C/C=C2\N(CCCCS(=O)(=O)O)c3ccc4ccccc4c3C2(C)C)=[N+](CCCCS(=O)(=O)[O-])c2ccc3ccccc3c21 [ICG, indocyanine green], the plasmatic half-life [1] is listed as 2 to 4 min, the protein binding [1] is listed as “extensive protein binding” and the “stability in aqueous solution” value [2] is listed as “degraded in aqueous solution”.
